Key:
Test in all cases: cryo-EM structure, […] Å
Assay type in all cases: binding
human MCC holoenzyme = target: T1, human MCC holoenzyme (Homo sapiens, UniProt Q9HCC0); conditions: 10 mM acetyl-CoA, 25 mM NaHCO3, 10 mM MgCl2, 10 mM ATP, pH 7.4; CT-domain acyl-CoA pocket; not the natural substrate
T1 construct: gene MCCC2; endogenous untagged holoenzyme, native purification from Expi 293F cells on Strep-Tactin XT via covalently linked biotin (K681 of MCCα); α6β6 dodecamer; acyl-CoA site between CT-C of one β and CT-N of another β; with Methylcrotonoyl-CoA carboxylase subunit alpha, mitochondrial
T1 sequence (Q9HCC0 23-563): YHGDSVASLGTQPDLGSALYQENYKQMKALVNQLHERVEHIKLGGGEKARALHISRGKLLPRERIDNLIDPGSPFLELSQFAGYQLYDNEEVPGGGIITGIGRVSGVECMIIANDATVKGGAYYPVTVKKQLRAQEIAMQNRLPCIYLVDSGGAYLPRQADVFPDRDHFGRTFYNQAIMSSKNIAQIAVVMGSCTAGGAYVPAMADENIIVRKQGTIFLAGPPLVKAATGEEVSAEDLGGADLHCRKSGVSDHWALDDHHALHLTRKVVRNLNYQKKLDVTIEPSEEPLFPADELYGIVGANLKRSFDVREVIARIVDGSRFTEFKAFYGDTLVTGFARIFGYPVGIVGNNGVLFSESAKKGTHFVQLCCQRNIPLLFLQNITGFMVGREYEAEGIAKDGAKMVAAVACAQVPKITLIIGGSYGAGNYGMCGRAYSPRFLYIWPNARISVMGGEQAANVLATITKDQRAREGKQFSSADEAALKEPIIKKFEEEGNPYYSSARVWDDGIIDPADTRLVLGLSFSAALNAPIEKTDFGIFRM
T1 sequence (Q96RQ3 42-725 partner): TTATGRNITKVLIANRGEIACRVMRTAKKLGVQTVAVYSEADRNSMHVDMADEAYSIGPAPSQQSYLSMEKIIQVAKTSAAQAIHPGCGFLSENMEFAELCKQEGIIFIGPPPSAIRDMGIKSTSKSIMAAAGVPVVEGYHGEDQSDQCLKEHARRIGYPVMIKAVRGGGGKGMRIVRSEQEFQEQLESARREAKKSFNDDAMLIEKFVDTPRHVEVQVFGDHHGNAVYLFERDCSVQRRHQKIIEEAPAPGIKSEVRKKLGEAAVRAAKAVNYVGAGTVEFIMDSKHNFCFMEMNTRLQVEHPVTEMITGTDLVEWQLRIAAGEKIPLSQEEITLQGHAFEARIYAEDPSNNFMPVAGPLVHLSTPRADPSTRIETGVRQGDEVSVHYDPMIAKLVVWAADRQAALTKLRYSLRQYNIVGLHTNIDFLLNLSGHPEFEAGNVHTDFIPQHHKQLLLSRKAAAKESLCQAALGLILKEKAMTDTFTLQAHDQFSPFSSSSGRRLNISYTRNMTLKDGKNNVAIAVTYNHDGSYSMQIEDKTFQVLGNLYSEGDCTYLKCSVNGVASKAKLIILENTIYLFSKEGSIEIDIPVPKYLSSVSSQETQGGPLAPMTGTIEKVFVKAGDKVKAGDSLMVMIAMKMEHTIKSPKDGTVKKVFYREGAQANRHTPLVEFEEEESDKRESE

human PCC holoenzyme [1] = target: T2, human PCC holoenzyme (Homo sapiens, UniProt P05166); conditions: 10 mM acetyl-CoA, 25 mM NaHCO3, 10 mM MgCl2, 10 mM ATP, pH 7.4; CT-domain active site; acyl group not resolved in map
T2 construct: gene PCCB; endogenous untagged holoenzyme, native purification from Expi 293F cells on Strep-Tactin XT via covalently linked biotin (K694 of PCCα); α6β6 dodecamer; acyl-CoA site between CT-C of one β and CT-N of another β; with Propionyl-CoA carboxylase alpha chain, mitochondrial
T2 sequence (P05166 29-539): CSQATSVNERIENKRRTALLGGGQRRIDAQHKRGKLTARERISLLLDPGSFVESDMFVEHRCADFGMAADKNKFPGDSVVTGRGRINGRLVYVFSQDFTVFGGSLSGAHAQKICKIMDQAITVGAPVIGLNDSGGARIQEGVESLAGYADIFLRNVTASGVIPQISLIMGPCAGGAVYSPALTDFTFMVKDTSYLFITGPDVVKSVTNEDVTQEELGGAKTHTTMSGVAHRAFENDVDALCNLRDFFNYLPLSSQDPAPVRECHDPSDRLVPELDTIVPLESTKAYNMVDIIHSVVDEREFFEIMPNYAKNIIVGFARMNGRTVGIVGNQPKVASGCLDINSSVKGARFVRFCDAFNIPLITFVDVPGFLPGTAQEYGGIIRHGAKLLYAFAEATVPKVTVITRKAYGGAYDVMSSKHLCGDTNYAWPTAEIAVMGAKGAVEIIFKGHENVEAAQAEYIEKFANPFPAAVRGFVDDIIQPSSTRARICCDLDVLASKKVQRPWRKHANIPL
T2 sequence (P05165 53-728 partner): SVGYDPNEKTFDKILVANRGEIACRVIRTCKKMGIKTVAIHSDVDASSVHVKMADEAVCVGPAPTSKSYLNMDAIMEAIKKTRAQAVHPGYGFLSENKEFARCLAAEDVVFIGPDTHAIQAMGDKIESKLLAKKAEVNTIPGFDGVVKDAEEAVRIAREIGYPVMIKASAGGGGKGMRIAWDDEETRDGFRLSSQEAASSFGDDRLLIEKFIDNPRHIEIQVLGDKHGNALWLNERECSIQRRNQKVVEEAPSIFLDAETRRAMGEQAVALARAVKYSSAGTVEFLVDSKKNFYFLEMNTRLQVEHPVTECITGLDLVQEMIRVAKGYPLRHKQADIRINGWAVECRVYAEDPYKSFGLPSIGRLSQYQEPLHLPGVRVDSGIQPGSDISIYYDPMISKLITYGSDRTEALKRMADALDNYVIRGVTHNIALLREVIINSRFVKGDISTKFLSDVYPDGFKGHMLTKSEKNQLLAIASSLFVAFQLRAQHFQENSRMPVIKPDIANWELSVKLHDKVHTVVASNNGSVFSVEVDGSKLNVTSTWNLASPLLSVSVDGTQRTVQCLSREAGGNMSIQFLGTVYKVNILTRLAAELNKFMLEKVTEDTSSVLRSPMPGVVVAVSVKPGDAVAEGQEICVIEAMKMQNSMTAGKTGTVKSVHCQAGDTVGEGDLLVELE

human PCC holoenzyme [2] = target: T2, human PCC holoenzyme; conditions: 10 mM propionyl-CoA, 25 mM NaHCO3, 10 mM MgCl2, 10 mM ATP, pH 7.4; CT-domain active site; acyl group not resolved in map

Row | SMILES | cryo-EM structure, 2.85 Å (human MCC holoenzyme) | cryo-EM structure, 3.38 Å (human PCC holoenzyme [1]) | cryo-EM structure, 2.80 Å (human PCC holoenzyme [2])
1 | CC(=O)SCCNC(=O)CCNC(=O)[C@H](O)C(C)(C)COP(=O)(O)OP(=O)(O)OC[C@H]1O[C@@H](n2cnc3c(N)ncnc32)[C@H](O)[C@@H]1OP(=O)(O)O [acetyl-CoA] | PCC and MCC holoenzymes in the acetyl-CoA-bound state (referred to as PCC-ACO and MCC-ACO) | The acetyl-CoA in the PCC-ACO structure has a binding mode similar to the propionyl-CoA | 
2 | CCC(=O)SCCNC(=O)CCNC(=O)[C@H](O)C(C)(C)COP(=O)(O)OP(=O)(O)OC[C@H]1O[C@@H](n2cnc3c(N)ncnc32)[C@H](O)[C@@H]1OP(=O)(O)O [propionyl-CoA] |  |  | six propionyl-CoA molecules are observed binding to the six active sites of CT domains

Reference: paper doi:10.1101/2024.04.30.591959v2, “Structural insights into human propionyl-CoA carboxylase (PCC) and 3-methylcrotonyl-CoA carboxylase (MCC)” (biorxiv, 2024)
